Test results from PubChem BioAssay AID2640 (Southern Research Specialized Biocontainment Screening …, 2010).
The source made the active and inactive calls.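 The calls were made as follows: active = wild-type drop in polymyxin IC50 at top compound dose over twice that in the PhoP-lacking mutant; inactive = the rest.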

Legend:
[1] = system: S. Typhimurium polymyxin resistance, OD600 growth, 24 h; assay: polymyxin susceptibility shift in S. Typhimurium, wild type vs phoP- strains, OD600 (AID 2640)
[2] = as above; settings: S. Typhimurium polymyxin resistance, OD600 growth, 24 h; for IC50 shift difference / IC50 shift: measured here: polymyxin IC50 shift, at 150 µM; for IC50 shift difference: WT minus phoP-
[3] = WT polymyxin IC50 at 150 uM, stronger effect = lower value
[4] = WT strain, stronger effect = higher value
[5] = phoP- strain, stronger effect = lower value
[6] = phoP- polymyxin IC50 at 150 uM, stronger effect = lower value

Structure (SMILES)	IC50 [1] [µM]	IC50 [1, 3] [µM]	IC50 shift difference ([2]; stronger effect = higher value)	IC50 shift [2, 4]	IC50 shift [2, 5]	IC50 [1, 6] [µM]	outcome [2]
O=C1C2=C(Nc3ccccc3SC2c2ccco2)c2ccccc21 (centres undefined)	30	0.04	14.6	18.2	3.6	–	–
S=C(NCc1ccc(Cl)cc1)Nc1ccncc1	30	3.59	20.4	3.93	-16.4	24	–
CCn1cc(C(=O)O)c(=O)c2cc(F)c(N3CCN(C(=S)NC(=O)c4ccccc4Cl)CC3)cc21	20	0.138	10.3	9.6	-0.66	0.706	–
COc1c(N2CCN(C(=S)NCc3ccccc3)C(C)C2)c(F)cc2c(=O)c(C(=O)O)cn(C3CC3)c12 (centres undefined)	10	–	6.39	9.16	2.76	0.677	–
Cc1ccc(Nc2cc(C)c3c(O)cccc3n2)cc1C	–	2.25	2.63	2.54	-0.09	0.088	inactive
O=C(Nc1ccc(Cl)cc1)N1CCCN(Cc2ccccc2F)C1	30	0.62	27.6	5.14	-22.4	26.9	–
